The record followed here is US20230265151A1, “GIP/GLP1 CO-AGONIST COMPOUNDS” (priority 2020, published 2023).

Where two headings read alike, the source gives them in different places. *1 amine or outer side, *2 acyl side, *3 side chain or, on linkers, in order; H or OH if unused. Where a SMILES comes first, the peptide text is derived from it. Side-chain parts run from the residue outwards. [ ]: non-standard residue; d: D form. The star is where a group is joined. αMePhe(2-F) = C[C@](N)(Cc1ccccc1F)C(=O)O; γGlu = O=C(O)[C@H](CCC(=O)[*:2])N[*:1]; C14 diacid = O=C(O)CCCCCCCCCCCCC(=O)*; αMeF = C[C@](N)(Cc1ccccc1)C(=O)O; 4Pal = N[C@@H](Cc1ccncc1)C(=O)O; αMeL = CC(C)C[C@](C)(N)C(=O)O; Orn = NCCC[C@H](N)C(=O)O; AEEA = NCCOCCOCC(=O)O; Aib = CC(C)(N)C(=O)O

Type in all cases: cell-based
The target in assay [1] is hGLP-1R (Homo sapiens, UniProt P43220). Nature of the assay: Functional cAMP formation (HTRF) in HEK-293 clonal cells expressing hGLP-1R, 0.1% bovine casein, without or with 1.0% human serum albumin. Conditions: for Emax: read-out: hGLP-1R Emax, % ± SEM; for EC50: read-out: hGLP-1R EC50, nM (SEM, n). The arrangement: expressed in transfected cells. An outline of the steps: (§1)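 Readings of the HTRF 665/620 nm ratio, which falls as cAMP rises, were converted to nM cAMP using a standard curve after 30 min peptide exposure at 37° C.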

Assay [2] has as its target T1, hGCGR (Homo sapiens, UniProt P47871).
T1 construct: expressed in transfected cells
Nature of the assay: Functional cAMP formation (HTRF) in HEK-293 clonal cells expressing hGCGR, 0.1% bovine casein, without or with 1.0% human serum albumin. Conditions: read-out: hGCGR EC50, nM (SEM, n). An outline of the steps:
as §1

Assay [3] addresses T2, hGIPR (Homo sapiens, UniProt P48546).
T2 construct: expressed in transfected cells
T2 sequence (P48546 22-466): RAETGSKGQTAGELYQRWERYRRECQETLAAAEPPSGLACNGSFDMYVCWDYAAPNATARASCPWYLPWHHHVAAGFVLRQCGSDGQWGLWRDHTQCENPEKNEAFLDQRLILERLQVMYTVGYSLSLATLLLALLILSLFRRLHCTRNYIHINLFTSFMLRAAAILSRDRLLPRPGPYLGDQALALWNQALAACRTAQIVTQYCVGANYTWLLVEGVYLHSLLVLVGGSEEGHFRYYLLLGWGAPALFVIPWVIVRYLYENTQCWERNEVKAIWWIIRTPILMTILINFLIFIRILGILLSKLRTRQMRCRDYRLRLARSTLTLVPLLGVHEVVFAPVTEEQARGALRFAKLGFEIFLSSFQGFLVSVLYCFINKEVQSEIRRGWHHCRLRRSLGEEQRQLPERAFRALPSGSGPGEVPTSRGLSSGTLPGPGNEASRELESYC
Nature of the assay: Functional cAMP formation (HTRF) in HEK-293 clonal cells expressing hGIPR, 0.1% bovine casein, without or with 1.0% human serum albumin. Conditions: for Emax: read-out: hGIPR Emax, % ± SEM; for EC50: cAMP, 0.1% bovine casein (no human serum albumin), geometric mean, read-out: hGIPR EC50, nM (SEM, n). The gist of the method: as §1

The mark [4] stands for this setting: cAMP, incubated at 37° C., 0.1% bovine casein (no human serum albumin), geometric mean.
Setting [5] is: 0.1% bovine casein and 1.0% human serum albumin, 37° C., geometric mean.
Setting [6] is: HEK293, 0.1% bovine casein and 1.0% human serum albumin, 37° C., percent of maximal response to GIP(1-42)NH2.
Where [7] appears, read: HEK293, percent of maximal response to GIP(1-42)NH2, 37° C., 0.1% bovine casein, arithmetic mean.
The mark [8] stands for this setting: HEK293, percent of maximal response to GLP-1(7-36)NH2, 37° C., 0.1% bovine casein, arithmetic mean.
Setting [9] is: cAMP, 37° C., 0.1% bovine casein (no human serum albumin), geometric mean.
The mark [10] stands for this setting: cAMP, 37° C., 0.1% bovine casein and 1.0% human serum albumin, geometric mean (SEM, n).

T1 sequence (P47871 26-477): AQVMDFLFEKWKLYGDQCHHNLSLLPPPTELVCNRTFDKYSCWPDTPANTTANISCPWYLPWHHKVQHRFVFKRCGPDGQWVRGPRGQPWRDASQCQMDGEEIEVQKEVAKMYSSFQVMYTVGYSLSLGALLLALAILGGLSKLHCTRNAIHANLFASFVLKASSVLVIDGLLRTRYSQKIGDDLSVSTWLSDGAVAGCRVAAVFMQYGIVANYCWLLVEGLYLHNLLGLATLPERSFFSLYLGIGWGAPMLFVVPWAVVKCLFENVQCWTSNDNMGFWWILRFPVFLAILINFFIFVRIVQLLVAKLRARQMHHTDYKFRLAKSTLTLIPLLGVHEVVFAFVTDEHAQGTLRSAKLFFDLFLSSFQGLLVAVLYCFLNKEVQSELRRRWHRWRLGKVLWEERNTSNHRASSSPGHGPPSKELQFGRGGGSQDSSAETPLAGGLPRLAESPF
Sequence of hGLP-1R (P43220 24-463): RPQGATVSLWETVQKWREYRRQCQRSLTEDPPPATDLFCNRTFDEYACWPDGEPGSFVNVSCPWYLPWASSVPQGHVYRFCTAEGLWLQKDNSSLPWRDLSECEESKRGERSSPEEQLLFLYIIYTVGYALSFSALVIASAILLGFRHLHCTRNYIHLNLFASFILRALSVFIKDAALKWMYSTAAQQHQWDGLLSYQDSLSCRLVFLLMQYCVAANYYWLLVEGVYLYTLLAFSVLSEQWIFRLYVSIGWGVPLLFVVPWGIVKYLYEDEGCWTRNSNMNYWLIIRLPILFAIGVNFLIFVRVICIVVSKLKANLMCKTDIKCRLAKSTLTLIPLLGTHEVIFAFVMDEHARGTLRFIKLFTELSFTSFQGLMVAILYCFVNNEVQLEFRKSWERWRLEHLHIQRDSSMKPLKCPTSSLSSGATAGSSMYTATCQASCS

As for `CC[C@H](C)[C@H](NC(=O)[C@H](CC(C)C)NC(=O)[C@](C)(Cc1ccc(O)cc1)NC(=O)[C@@H](CCC(=O)O)NC(=O)[C@@H](NC(=O)[C@H](Cc1ccccc1)NC(=O)[C@H](CCC(=O)O)NC(=O)C(C)(C)NC(=O)[C@H](CCC(N)=O)NC(=O)[C@H](C)NC(=O)[C@H](CCCCNC(=O)COCCOCCNC(=O)COCCOCCNC(=O)CC[C@H](NC(=O)CCCCCCCCCCCCC(=O)O)C(=O)O)NC(=O)[C@H](CCCN)NC(=O)[C@H](CC(=O)O)NC(=O)[C@H](CC(C)C)NC(=O)[C@](C)(CC(C)C)NC(=O)[C@@H](NC(=O)[C@H](CO)NC(=O)[C@H](CC1CCCCC1)NC(=O)[C@H](CC(=O)O)NC(=O)[C@H](CO)NC(=O)[C@@H](NC(=O)[C@](C)(Cc1ccccc1F)NC(=O)[C@@H](NC(=O)CNC(=O)[C@H](CCC(=O)O)NC(=O)C(C)(C)NC(=O)[C@@H](N)Cc1ccc(O)cc1)[C@@H](C)O)[C@@H](C)O)[C@@H](C)CC)[C@@H](C)CC)C(=O)N[C@@H](CCC(=O)O)C(=O)NCC(=O)NCC(=O)N[C@@H](CCCCNC(=O)COCCOCCNC(=O)COCCOCCNC(=O)CC[C@H](NC(=O)CCCCCCCCCCCCC(=O)O)C(=O)O)C(=O)N[C@@H](CO)C(=O)N[C@@H](CO)C(=O)NCC(=O)N[C@@H](C)C(=O)N1CCC[C@H]1C(=O)N1CCC[C@H]1C(=O)N1CCC[C@H]1C(=O)N[C@@H](CO)C(N)=O` [Example 98], the Emax in assay [1] (HEK293, 0.1% bovine casein and 1.0% human serum albumin, 37° C., percent of maximal response to GLP-1(7-36)NH2) was determined as 97.5%; in assay [3] (setting [6]), 95%; in assay [3] (setting [7]), 97.7 ± 2.54%. For the same compound, the concentration for a half-maximal effect (EC50) in assay [1] (setting [4]) is 0.227 nM; in assay [2] (setting [5]) it was greater than 9950 nM; in assay [2] (setting [4]), greater than 9950 nM; in assay [3] (incubated at 37° C.), 0.0148 nM.

Regarding `CC[C@H](C)[C@H](NC(=O)[C@H](CC(C)C)NC(=O)[C@H](Cc1ccc(O)cc1)NC(=O)[C@H](CCCCNC(=O)COCCOCCNC(=O)COCCOCCNC(=O)CC[C@H](NC(=O)CCCCCCCCCCCCC(=O)O)C(=O)O)NC(=O)[C@@H](NC(=O)[C@](C)(Cc1ccccc1)NC(=O)[C@H](CCC(=O)O)NC(=O)C(C)(C)NC(=O)[C@H](CCC(N)=O)NC(=O)[C@H](C)NC(=O)[C@H](CCCCNC(=O)COCCOCCNC(=O)COCCOCCNC(=O)CC[C@H](NC(=O)CCCCCCCCCCCCC(=O)O)C(=O)O)NC(=O)[C@H](CCCN)NC(=O)[C@H](CC(=O)O)NC(=O)[C@H](CC(C)C)NC(=O)[C@](C)(CC(C)C)NC(=O)[C@@H](NC(=O)[C@H](CO)NC(=O)[C@H](Cc1ccncc1)NC(=O)[C@H](CC(=O)O)NC(=O)[C@H](CO)NC(=O)[C@@H](NC(=O)[C@](C)(Cc1ccccc1F)NC(=O)[C@@H](NC(=O)CNC(=O)[C@H](CCC(=O)O)NC(=O)C(C)(C)NC(=O)[C@@H](N)Cc1ccc(O)cc1)[C@@H](C)O)[C@@H](C)O)[C@@H](C)CC)[C@@H](C)CC)C(=O)N[C@@H](CCC(=O)O)C(=O)NCC(=O)NCC(=O)N1CCC[C@H]1C(=O)N[C@@H](CO)C(=O)N[C@@H](CO)C(=O)NCC(=O)N[C@@H](C)C(=O)N1CCC[C@H]1C(=O)N1CCC[C@H]1C(=O)N1CCC[C@H]1C(=O)N[C@@H](CO)C(N)=O` [Example 85] (H-Y[Aib]EGT[αMePhe(2-F)]TSD[4Pal]SI[αMeL]LD[Orn]K([AEEA-AEEA-γGlu-C14 diacid])AQ[Aib]E[αMeF]IK([AEEA-AEEA-γGlu-C14 diacid])YLIEGGPSSGAPPPS-NH2), the values for the Emax in assay [1] (setting [8]) and in assay [3] (setting [7]) were 95.3% and 91.7%, respectively. Moreover, the concentration for a half-maximal effect (EC50) in assay [2] (setting [4]) was greater than 9950 nM; in assay [3] (incubated at 37° C.), 0.0312 nM.

In the case of `CCCCCCCCCCCC(=O)N[C@@H](CCC(=O)NCCOCCOCC(=O)NCCCC[C@H](NC(=O)[C@H](CCCN)NC(=O)[C@H](CC(=O)O)NC(=O)[C@H](CC(C)C)NC(=O)[C@](C)(CC(C)C)NC(=O)[C@@H](NC(=O)C(C)(C)NC(=O)[C@H](Cc1ccncc1)NC(=O)[C@H](CC(=O)O)NC(=O)[C@H](CO)NC(=O)[C@@H](NC(=O)[C@](C)(Cc1ccccc1F)NC(=O)[C@@H](NC(=O)CNC(=O)[C@H](CCC(=O)O)NC(=O)C(C)(C)NC(=O)[C@@H](N)Cc1ccc(O)cc1)[C@@H](C)O)[C@@H](C)O)[C@@H](C)CC)C(=O)N[C@@H](C)C(=O)N[C@@H](CCC(N)=O)C(=O)NC(C)(C)C(=O)N[C@@H](CCCCNC(=O)COCCOCCNC(=O)CC[C@H](NC(=O)CCCCCCCCCCC)C(=O)O)C(=O)N[C@@H](Cc1ccccc1)C(=O)N[C@H](C(=O)N[C@H](CCC(=O)O)C(=O)N[C@@](C)(Cc1ccc(O)cc1)C(=O)N[C@@H](CC(C)C)C(=O)N[C@H](C(=O)N[C@@H](CCC(=O)O)C(=O)NCC(=O)NCC(=O)N1CCC[C@H]1C(=O)N[C@@H](CO)C(=O)N[C@@H](CO)C(=O)NCC(=O)N[C@@H](C)C(=O)N1CCC[C@H]1C(=O)N1CCC[C@H]1C(=O)N1CCC[C@H]1C(=O)N[C@@H](CO)C(N)=O)[C@@H](C)CC)[C@@H](C)CC)C(=O)O` [Example 426], the Emax in assay [1] (HEK293, cAMP, 37° C., 0.1% bovine casein, percent of maximal response to GLP-1(7-36)NH2, arithmetic mean) was 97.2%; in assay [3] (HEK293, cAMP, 37° C., 0.1% bovine casein and 1.0% human serum albumin, percent of maximal response to GIP(1-42)NH2), 91.2%; in assay [3] (HEK293, cAMP, 37° C., 0.1% bovine casein, percent of maximal response to GIP(1-42)NH2, arithmetic mean), 93.3%. Besides, the EC50 in assay [1] (setting [9]) is 0.206 nM; in assay [1] (setting [10]), 29.7 nM; in assay [2] (setting [9]), greater than 9950 nM; in assay [2] (setting [10]), greater than 9950 nM; in assay [3] (37° C.), 0.0191 nM.

In the case of `CCCCCCCCCCCCCCCC(=O)N[C@@H](CCC(=O)NCCOCCOCC(=O)NCCOCCOCC(=O)NCCCC[C@H](NC(=O)[C@H](CCCN)NC(=O)[C@H](CC(=O)O)NC(=O)[C@H](CC(C)C)NC(=O)[C@](C)(CC(C)C)NC(=O)[C@@H](NC(=O)[C@H](CO)NC(=O)[C@H](Cc1ccncc1)NC(=O)[C@H](CC(=O)O)NC(=O)[C@H](CO)NC(=O)[C@@H](NC(=O)[C@](C)(Cc1ccccc1F)NC(=O)[C@@H](NC(=O)CNC(=O)[C@H](CCC(=O)O)NC(=O)C(C)(C)NC(=O)[C@@H](N)Cc1ccc(O)cc1)[C@@H](C)O)[C@@H](C)O)[C@@H](C)CC)C(=O)N[C@@H](C)C(=O)N[C@@H](CCC(N)=O)C(=O)NC(C)(C)C(=O)N[C@@H](CCC(=O)O)C(=O)N[C@@H](Cc1ccccc1)C(=O)N[C@H](C(=O)N[C@H](CCC(=O)O)C(=O)N[C@@H](CCCCNC(=O)COCCOCCNC(=O)COCCOCCNC(=O)CC[C@H](NC(=O)CCCCCCCCCCCCCCC)C(=O)O)C(=O)N[C@@H](CC(C)C)C(=O)N[C@H](C(=O)N[C@@H](CCC(=O)O)C(=O)NCC(=O)NCC(=O)N1CCC[C@H]1C(=O)N[C@@H](CO)C(=O)N[C@@H](CO)C(=O)NCC(=O)N[C@@H](C)C(=O)N1CCC[C@H]1C(=O)N1CCC[C@H]1C(=O)N1CCC[C@H]1C(=O)N[C@@H](CO)C(N)=O)[C@@H](C)CC)[C@@H](C)CC)C(=O)O` [Example 32], the EC50 was 1.73 nM in assay [1] (setting [5]), 0.0063 nM in assay [1] (setting [4]), greater than 9950 nM in assay [2] (setting [5]) and greater than 9950 nM in assay [2] (setting [4]). Moreover, the Emax in assay [1] (setting [8]) turned out to be 119%; in assay [3] (setting [6]), 98.2%.
